Key:
hippocampal stem cells = test: Differentiation into mature neurons (BrdU+/MAP-2ab+), three-week treatment; assay type: cell-based, human; conditions: three weeks of continuous treatment; two-day BrdU pulse; FIG. 12
Experimental: FIG. 12 is a bar graph illustrating an example of differentiation into mature neurons as a percentage of control in response to a three-week treatment with the test compounds. Mitotic cells were labeled with BrdU. BrdU-positive cells were double-stained with the marker of mature neurons, anti-MAP-2 antibody. Total BrdU-immunostained cells and BrdU+/MAP-2ab+ co-stained cells indicating neurons were counted.
In FIG. 12 the exact number of dividing cells and neurons are determined to confirm that the increase in neurons is due to proliferation followed by differentiation. In FIG. 12, hippocampal stem cells are plated in a 96-well plate. The cells are then treated with one of the agents listed along with a two-day pulse of bromodeoxyuridine which is taken up into dividing cells thereby labeling mitotic cells with BrdU. After three weeks of continuous treatment with the listed agents, the cells are fixed and stained for BrdU immunoreactivity. BrdU-positive cells are double-stained with the marker of mature neurons, anti-MAP-2 to identify cells that have differentiated into mature neurons. The BrdU+/MAP-2ab+ co-stained cells which have differentiated into mature neurons are distinguished from control BrdU-immunostained cells which are proliferating stem cells.

[1] = system: caspase-3 activation induced by beta amyloid peptide 25-35; test: Apoptosis induced by beta amyloid peptide 25-35 (caspase-3); assay type: cell-based, human; conditions: FIG. 8
Text: (§1) FIG. 8 is a bar graph illustrating an example of a neuroprotection profile of the compounds against apoptosis, also known as programmed cell death, induced by beta amyloid peptide 25-35 as a model of Alzheimer's disease. Caspase-3 activation plays a central role in apoptosis and is an indicator of the occurrence of apoptosis if detected. […] Bars represent mean±SD from five wells.
Another assay used to determine the ability of a compound to provide neuroprotection is an apoptosis assay. Apoptosis is measured using the activity of an early matter of the programmed cell death pathway, caspase-3. Following 24 hours or 48 hours of apoptotic-induction in the presence and absence of compound treatment, the media is removed from the wells, and 50 μl cell lysis buffer is added to each well, 50 μl of 2× reaction buffer containing 10 mM DTT is then added to the lysate in each well. The contents of two wells are combined (for example: rows A/H, B/G, C/F, D/E), and 5 μl of substrate is added per well as recommended in the protocol for a caspase-3 fluorometric assay kit (Biovision) known in the art. The plate is incubated at 37° C. for 60 minutes. The contents of each well are then transferred to a fresh plate, and the fluorescence is determined with an […] using a fluorescent plate reader such as the Molecular Devices Gemini Fluorescent Plate Reader. Caspase-3 activity is expressed as μM of cleaved substrate per hour. Substrate concentration in μM is run for each plate to determine activity values for each treatment condition.
as §1, with “apoptosis” for “apoptosis, also known as programmed cell death,”, “25-35, part of a larger peptide found in plaques in Alzheimer's brains,” for “25-35”

[2] = system: dentate gyrus of C57B16 adult mice; test: In vivo neurogenesis, BrdU immunostaining of dentate gyrus; parameters: species or system mouse; conditions: for Neurogenesis in the dentate gyrus (BrdU-immunopositive cells): 10 mg/kg orally for ten days, healthy adult mice
Experimental: FIG. 9A and FIG. 9B are micrographs illustrating an example of BrdU immunostaining of a mouse dentate gyrus having been administered a vehicle and a compound. Mice were treated daily with various test compounds at 10 mg/kg p.o. (FIG. 9B) or vehicle alone (FIG. 9A) for ten days. The animals were injected daily with BrdU for the first seven days. At the end of the ten-day period, the animals were perfused and their brains sliced for immunostaining with anti-BrdU antibody and analysis.
FIGS. 10A and 10B are bar graphs illustrating an example of quantification of BrdU-immunopositive cells in the in vivo neurogenesis testing the compounds. Mice were treated with the various test compounds for in vivo neurogenesis in two cohorts. The cells from one dentate gyrus of each mouse in each test group were counted and average BrdU values immunoreactivity are shown. The symbols, * and ** indicate immunoreactivity increases of statistical significant the indicated p values. Seven compounds are especially effective in increasing the neurogenesis in the dentate gyrus of the healthy adult mice, the area known to have continued adult neurogenesis.
In one embodiment, fifteen of the compounds from Table I above are administered orally to mice at 10 mg/kg for ten days and co-administered bromodeoxyuridine (BrdU) by intraperitoneal injection for the first […] days. […] For example, in FIGS. 9A and 9B, BrdU immunostainings of hippocampal slices from two mice treated with either vehicle alone or NSI-158 are illustrated. In FIGS. 9A and 9B, the mice are treated daily for ten days with vehicle alone (FIG. 9A) or orally with various test compounds at 10 mg/kg (FIG. 9B). The animals are injected daily with BrdU for the first seven days. […]
Mice were treated with the various test compounds for in vivo neurogenesis in two cohorts as described above. The cells from one dentate gyrus of each mouse in each test group were counted and average BrdU immunoreactivity values are calculated. […]

[3] = system: human hippocampal stem cells; test: Neuronal identification of mitotic cells (BrdU / TuJ1 co-staining); assay type: cell-based; conditions: BrdU during last forty-eight hours of two-week treatment; FIG. 13
Text: FIG. 13 is a bar graph illustrating an example of neuronal identification of the mitotic cells in response to the compound treatment. Mitotic cells were labeled with BrdU during the last forty-eight hours of the two-week treatment with the test compounds. BrdU alone and BrdU together with TuJ1 as co-stained cells were quantified. Results from NSI-106 and LIF treatment are shown as an example. […] The bars represent the mean±SD from each of six wells.
In FIG. 13, mitotic cells are labeled with BrdU during the last forty-eight hours of a two-week treatment with the test compounds. BrdU alone and BrdU together with TuJ1 as co-stained cells are quantified.
As described in pending U.S. patent application Ser. No. 10/728,652, leukemia inhibitory factor (LIF), a cytokine growth factor, was selected from among several known neurotrophic factors as a positive control against which tested compounds can be compared. […] This effect is both consistent with the neural stem cell system in which the cells respond appropriately to the positive control by enhanced differentiation and/or mitosis, and achieves the objective of the assay method in which such cellular responses can be measured reproducibly and quantifiably.
Results from NSI-106 and the positive control, LIF treatment are shown as an example. […] The bars represent the mean±SD from each of six wells.

SMILES | Proliferation and differentiation into mature neurons (BrdU+/MAP-2ab+ cells) (hippocampal stem cells) | Inhibition of apoptosis induced by beta amyloid peptide 25-35 [1] | further results
CS(=O)(=O)N1CCCCC1C(=O)NCc1ccc(Nc2c(C3CC3)nc3ccccn23)cc1 (centres unmarked) [NSI-127] | induce proliferation and then differentiation into neurons | – | –
CCN(CCNC(=O)c1cccnc1NCCC(C)C)Cc1cccnc1 [NSI-190] | induce proliferation and then differentiation into neurons | – | –
O=C(NCc1nc2ccccn2c1NCC1CCCO1)Oc1ccccc1 (centres unmarked) [NSI-182] | – | inhibit apoptosis | –
CC(C)CCNc1ncccc1C(=O)N1CCN(Cc2ccccc2)CC1 [NSI-189] | – | – | Neurogenesis in the dentate gyrus (BrdU-immunopositive cells) [2]: especially effective at promoting neurogenesis
CCCCNc1c(C2CCN(C(=O)CN(CC(C)C)S(C)(=O)=O)CC2)nc2cnccn12 [NSI-106] | – | – | BrdU and TuJ1 co-stained mitotic cells [3]: produces mostly co-stained cells
NC(=O)C1CCCN1C(=O)c1cccnc1NCC1CCCCC1 (centres unmarked) [NSI-158] | – | – | Neurogenesis in the dentate gyrus (BrdU-immunopositive cells) [2]: especially effective at promoting neurogenesis; Dividing cells in the dentate gyrus versus vehicle (BrdU immunostaining) ([2]; 10 mg/kg p.o. daily for ten days, FIG. 9A/9B): far greater dividing cells
COc1ccc(CCNc2ncc(C(N)=O)c(NC3CC3)n2)cc1OC [NSI-130] | – | inhibit apoptosis | –
NC(=O)c1cnc(NCc2ccc(Cl)cc2)nc1NCC1CCCCC1 [NSI-144] | induce proliferation and then differentiation into neurons | inhibit apoptosis | –
O=C(COc1ccccc1)NCc1nc2ccccn2c1NCC1CCCO1 (centres unmarked) [NSI-183] | induce proliferation and then differentiation into neurons | – | –
